The values below come from EP4559908A1, “HETEROARYL DERIVATIVE COMPOUND AND USE THEREOF” (S2CBio Inc., priority 2022, dated 2024).

This test concerns the target T1, human ANO6 (variant 5) (Homo sapiens, UniProt Q4KMQ2).
T1 construct: expressed in transfected cells; host or cells: Fischer rat thyroid (FRT) cells
T1 sequence (Q4KMQ2 1-931 isoform Q4KMQ2-2): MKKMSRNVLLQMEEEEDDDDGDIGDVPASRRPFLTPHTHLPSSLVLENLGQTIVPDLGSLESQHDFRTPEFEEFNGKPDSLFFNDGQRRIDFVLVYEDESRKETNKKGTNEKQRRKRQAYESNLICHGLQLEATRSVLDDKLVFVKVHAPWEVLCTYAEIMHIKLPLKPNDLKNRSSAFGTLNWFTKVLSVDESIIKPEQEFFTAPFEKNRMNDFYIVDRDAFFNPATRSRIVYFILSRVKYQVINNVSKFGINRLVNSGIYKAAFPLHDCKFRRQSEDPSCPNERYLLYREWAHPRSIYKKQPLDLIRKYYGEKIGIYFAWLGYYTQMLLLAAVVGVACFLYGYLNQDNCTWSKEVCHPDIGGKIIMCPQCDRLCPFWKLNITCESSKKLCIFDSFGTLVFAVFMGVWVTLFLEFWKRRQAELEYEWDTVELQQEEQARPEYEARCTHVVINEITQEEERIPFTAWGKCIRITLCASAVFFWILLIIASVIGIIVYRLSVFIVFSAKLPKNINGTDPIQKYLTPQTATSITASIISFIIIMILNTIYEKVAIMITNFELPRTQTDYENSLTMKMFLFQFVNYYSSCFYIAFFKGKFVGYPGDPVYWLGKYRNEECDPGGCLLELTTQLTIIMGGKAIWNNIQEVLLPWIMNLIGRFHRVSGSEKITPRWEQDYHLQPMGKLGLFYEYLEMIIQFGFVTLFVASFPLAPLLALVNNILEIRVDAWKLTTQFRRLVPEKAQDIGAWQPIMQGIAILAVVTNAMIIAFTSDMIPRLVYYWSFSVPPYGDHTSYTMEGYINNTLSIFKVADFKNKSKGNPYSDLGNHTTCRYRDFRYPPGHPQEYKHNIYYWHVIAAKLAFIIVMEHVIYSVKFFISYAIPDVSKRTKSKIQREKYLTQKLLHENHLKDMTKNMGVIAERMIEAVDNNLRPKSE
The test is described as follows: Lact C2 assay (measuring phosphatidylserine externalization scramblase function). Format: cell-based. To be noted: for inhibition at 0.1 µM / inhibition at 0.05 µM / inhibition at 1 µM: FRT; for inhibition at 0.05 µM: read-out: % Inhibition 50 nM; for inhibition at 1 µM: read-out: % Inhibition 1 µM. Summed up:
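Cells were pretreated 10 min with compound (50 nM, 100 nM, 1 µM; 1% DMSO), then given 10 µM ionomycin for 10 min. Surface phosphatidylserine was stained with 500 nM Lact-C2-GFP (10 min, 37 °C), fixed and imaged. Inhibition was scaled between untreated (100%) and ionomycin-alone (0%) wells.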

[1] abbreviates: compound 100 nM, FRT cells expressing human ANO6 (variant 5), ionomycin 10 µM, Lact-C2-GFP fluorescence, average of three tests.
Where [2] appears, read: compound 50 nM, FRT cells expressing human ANO6 (variant 5), ionomycin 10 µM, Lact-C2-GFP fluorescence, average of three tests.
Where [3] appears, read: compound 1 µM, FRT cells expressing human ANO6 (variant 5), ionomycin 10 µM, Lact-C2-GFP fluorescence, average of three tests.

Like-named read-outs stand apart in the source and are kept apart here.

In turn, `Fc1ccc2nc(-c3cccc(Nc4ncc(-c5cccnn5)cn4)c3)[nH]c2c1` [Example 51, N-(3-(6-fluoro-1H-benzo[d]imidazol-2-yl)phenyl)-5-(pyridazin-3-yl)pyrimidin-2-amine] displayed an inhibition at 0.1 µM under setting [1] greater than 60%. In addition, the “% Inhibition 50 nM” value under setting [2] is “B (30 to 60% inhibition)”.

For `Fc1cc2[nH]c(-c3cccc(Nc4ccc(-c5ccccn5)cn4)c3)nc2cn1` [Example 281, N-(3-(6-fluoro-1H-imidazo[4,5-c]pyridin-2-yl)phenyl)-[2,3'-bipyridin]-6'-amine], the inhibition at 0.05 µM under setting [2] is greater than 60%. Moreover, under setting [3], the inhibition at 1 µM was greater than 60%. As for `c1ccc(-c2ccc(Nc3cccc(-c4nc5ccccc5[nH]4)c3)nn2)cc1` [Example 2, N-(3-(1H-benzo[d]imidazol-2-yl)phenyl)-6-phenylpyridazin-3-amine], under setting [1], the inhibition at 0.1 µM is greater than 60%. In addition, the inhibition at 1 µM under setting [3] is greater than 60%.

Take `Fc1cc2nc(-c3cccc(Nc4ccc(-c5ccccn5)cn4)c3)[nH]c2cc1F` [Example 283, N-(3-(5,6-difluoro-1H-benzo[d]imidazol-2-yl)phenyl)-[2,3'-bipyridin] -6'-amine]: the inhibition at 0.05 µM under setting [2] is greater than 60%. Besides, under setting [3], the inhibition at 1 µM was greater than 60%.

As to `c1cnc(-c2ccc(Nc3cccc(-c4nc5ccccc5[nH]4)c3)cc2)nc1` [Example 26, N-[3-(1H-benzo[d]imidazol-2-yl)phenyl]-4-(pyrimidin-2-yl)aniline], the inhibition at 0.05 µM under setting [2] was greater than 60%. Moreover, the inhibition at 0.1 µM under setting [1] is greater than 60%. The inhibition at 1 µM under setting [3] is greater than 60%.

With `COc1ccc(-c2ccc(Nc3cccc(-c4nc5ccc(C(F)(F)F)cc5[nH]4)c3)cc2)nn1` [Example 278, N-(4-(6-methoxypyridazin-3-yl)phenyl)-3-(6-(trifluoromethyl)-1H-benzo[d]imidazol-2-yl)aniline], the inhibition at 0.05 µM under setting [2] was greater than 60%.

For the compound `COc1ccc2nc(-c3cccc(Nc4ncc(-c5cccnn5)cn4)c3)[nH]c2c1` [Example 108, N-[3-(6-methoxy-1H-benzo[d]imidazol-2-yl)phenyl]-5-pyridazin-3-yl-pyrimidin-2-amine], the inhibition at 1 µM under setting [3] is 30 to 60%. As for `COC(=O)c1ccc2nc(-c3cccc(Nc4ccc(-c5cccnn5)cc4)c3)[nH]c2c1` [Example 61, methyl 2-(3-((4-(pyridazin-3-yl)phenyl)amino)phenyl)-1H-benzo[d]imidazol-6-carboxylate], the inhibition at 0.05 µM under setting [2] was greater than 60%. The inhibition at 0.1 µM under setting [1] is greater than 60%. With `COC(=O)c1ccc2nc(-c3cccc(Nc4ccc(-c5ncccn5)cc4)c3)[nH]c2c1` [Example 78, methyl 2-(3-((4-(pyrimidin-2-yl)phenyl)amino)phenyl)-1H-benzo[d]imidazol-6-carboxylate], under setting [3], the inhibition at 1 µM is greater than 60%.

`FC(F)(F)Oc1cc2nc(-c3cccc(Nc4ncc(-c5cccnn5)cn4)c3)[nH]c2cc1Cl` [Example 120, N-[3-[6-chloro-5-(trifluoromethoxy)-1H-benzo[d]imidazol-2-yl]phenyl]-5-pyridazin-3-yl-pyrimidin-2-amine]: the inhibition at 0.05 µM under setting [2] was greater than 60%. Further, the inhibition at 1 µM under setting [3] was greater than 60%. In the case of `Fc1ccc2nc(-c3cccc(Nc4ncc(-c5cccnn5)cn4)c3)[nH]c2c1` [Example 55, N-(3-(6-fluoro-1H-benzo[d]imidazol-2-yl)phenyl)-5-(pyridazin-3-yl)pyrimidin-2-amine], the “% Inhibition 50 nM” value under setting [2] is listed as “A (> 60% inhibition)”. Moreover, the “% Inhibition 100 nM” value under setting [1] is “A (> 60% inhibition)”. In the case of `c1cc(Nc2ccc(-c3cccnn3)cc2)cc(-c2nc3ncccc3[nH]2)c1` [Example 219, 3-(1H-imidazo[4,5-b]pyridin-2-yl)-N-(4-(pyridazin-3-yl)phenyl)aniline], the inhibition at 1 µM under setting [3] is greater than 60%. Turning to `Fc1cc2nc(-c3cccc(Nc4cnc(-c5ccncn5)cn4)c3)[nH]c2cc1F` [Example 297, N-(3-(5,6-difluoro-1H-benzo[d]imidazol-2-yl)phenyl)-5-(pyrimidin-4-yl)pyrazin-2-amine], the inhibition at 0.05 µM under setting [2] was greater than 60%. Moreover, under setting [3], the inhibition at 1 µM was greater than 60%. As to `CN(Cc1ccccc1)c1ccc2nc(-c3cccc(Nc4ccc(-c5cccnn5)cc4)c3)[nH]c2c1` [Example 280, N-benzyl-N-methyl-2-(3-((4-(pyridazin-3-yl)phenyl)amino)phenyl)-1H-benzo[d]imidazol-6-amine], the inhibition at 0.05 µM was 30 to 60% and the inhibition at 1 µM was greater than 60%. As to `FC(F)(F)c1ccc2nc(-c3ccnc(Nc4ncc(-c5ccccn5)cn4)c3)[nH]c2c1` [Example 306, 5-(pyridin-2-yl)-N-(4-(6-(trifluoromethyl)-1H-benzo[d]imidazol-2-yl)pyridin-2-yl)pyrimidin-2-amine], under setting [3], the inhibition at 1 µM was 30 to 60%. As for `c1cc(Nc2ccc(-c3cscn3)cc2)cc(-c2nc3ccccc3[nH]2)c1` [Example 166, 3-(1H-benzo[d]imidazol-2-yl)-N-(4-thiazol-4-ylphenyl)aniline], the inhibition at 0.05 µM under setting [2] was greater than 60%. For the same compound, the inhibition at 1 µM under setting [3] is greater than 60%. Turning to `FC(F)(F)c1ccc2nc(-c3cc(Nc4ccc(-c5cccnn5)cc4)ccn3)[nH]c2c1` [Example 263, N-(4-(pyridazin-3-yl)phenyl)-2-(6-(trifluoromethyl)-1H-benzo[d]imidazol-2-yl)pyridin-4-amine], the inhibition at 1 µM under setting [3] was in the range of 30 to 60%. Regarding `FC(F)(F)c1ccc2nc(-c3cccc(Nc4ccc(-c5cccnn5)cc4)c3)[nH]c2c1` [Example 23, N-(4-(pyridazin-3-yl)phenyl)-3-(6-(trifluoromethyl)-1H-benzo[d]imidazol-2-yl)aniline], the inhibition at 0.05 µM under setting [2] was greater than 60%. For the same compound, the inhibition at 0.1 µM under setting [1] was greater than 60%. Further, under setting [3], the inhibition at 1 µM was greater than 60%. With `FC(F)Oc1ccc2nc(-c3cccc(Nc4cnc(-c5ccccn5)cn4)c3)[nH]c2c1` [Example 300, N-(3-(6-(difluoromethoxy)-1H-benzo[d]imidazol-2-yl)phenyl)-5-(pyridin-2-yl) pyrazin-2-amine], under setting [2], the inhibition at 0.05 µM was in the range of 30 to 60%. Under setting [3], the inhibition at 1 µM was greater than 60%. For `FC(F)(F)c1ccc2nc(-c3cncc(Nc4ncc(-c5ccccn5)cn4)c3)[nH]c2c1` [Example 307, 5-(pyridin-2-yl)-N-(5-(6-(trifluoromethyl)-1H-benzo[d]imidazol-2-yl)pyridin-3-yl)pyrimidin-2-amine], under setting [3], the inhibition at 1 µM is 30 to 60%. For the compound `Fc1ccc2nc(-c3cccc(Nc4ccc(-c5ccncn5)cn4)c3)[nH]c2c1` [Example 72, N-(3-(6-fluoro-1H-benzo[d]imidazol-2-yl)phenyl)-5-(pyrimidin-4-yl)pyridin-2-amine], the inhibition at 0.05 µM under setting [2] is greater than 60%. The inhibition at 0.1 µM under setting [1] was greater than 60%. In the case of `FC(F)(F)c1cc2[nH]c(-c3cccc(Nc4ccc(-c5ccncn5)cn4)c3)nc2cn1` [Example 89, 5-pyrimidin-4-yl-N-[3-[6-(trifluoromethyl)-1H-imidazo[4,5-c]pyridin-2-yl]phenyl]pyridin-2-amine], the inhibition at 0.05 µM under setting [2] fell in the range of 30 to 60%. For the same compound, under setting [3], the inhibition at 1 µM was greater than 60%. With `FC(F)(F)c1ccc2nc(-c3cccc(Nc4ccc(-c5ccccc5)nn4)c3)[nH]c2c1` [Example 1, 6-phenyl-N-(3-(6-(trifluoromethyl)-1H-benzo[d]imidazol-2-yl)phenyl)pyridazin-3-amine], the inhibition at 0.05 µM under setting [2] lay within 30 to 60%. This compound also yielded an inhibition at 0.1 µM under setting [1] greater than 60%. The inhibition at 1 µM under setting [3] was greater than 60%. Consider `FC(F)(F)c1cc2nc(-c3cccc(Nc4ccc(-c5ccccc5)nn4)c3)[nH]c2cc1Br` [Example 9, N-{3-[6-bromo-5-(trifluoromethyl)-1H-benzo[d]imidazol-2-yl]phenyl}-6-phenylpyridazin-3-amine], for which, under setting [2], the inhibition at 0.05 µM is greater than 60%. The inhibition at 0.1 µM under setting [1] was greater than 60%. Further, the inhibition at 1 µM under setting [3] was greater than 60%. Turning to `Clc1cc2[nH]c(-c3cccc(Nc4ccc(-c5ccccn5)cn4)c3)nc2cn1` [Example 282, N-(3-(6-chloro-1H-imidazo[4,5-c]pyridin-2-yl)phenyl)-[2,3'-bipyridin]-6'-amine], the inhibition at 0.05 µM under setting [2] is 30 to 60%. Further, the inhibition at 1 µM under setting [3] is greater than 60%.
